From a melting point compilation (Tetko et al.; mined from patent text by program, amines drawn as free bases though some values may be those of a salt)

Compound	melting point [°C]
COc1c(CN2C(=O)c3ccccc3C2=O)c2c(c3c1OC(C)(C)C3)C(c1ccccc1)=NC(C)(C)C2	193 to 195
CN(C)CCCn1c2c(c3ccccc31)CCSCCC2	70 to 71
O=C(NC(CO)CO)OCc1ccccc1	104 to 106
CCOC(=O)N1CCN(CCNc2ncnc3c2sc2nc(N4CCCC4)c4c(c23)CC(C)(C)OC4)CC1	97.8 to 99.1
CC(NC(Nc1ccc(Cl)cc1)=C(C#N)S(C)(=O)=O)C(C)(C)C (centres undefined)	160 to 162
CC(=O)OC1(C(C)=O)CCC2C3C(OS(C)(=O)=O)C(Cl)C4=CC(=O)OCC4(C)C3CCC21C (centres undefined)	222 to 226
CC1C(=O)CC(C)C(C#N)C1=O (centres undefined)	178 to 179
CCc1ccc(N(Cc2ccc(N3CCOCC3)cc2)C(=O)C2CCCc3c(O)cccc32)cc1 (centres undefined)	200
O=C(N[C@@H](Cc1ccccc1)C(=O)O)OCC(Cl)(Cl)Cl	126
O=C1C=CC(=O)N1CCCCCCN1C(=O)C=CC1=O	136 to 139
COc1ccc2c3c1OC1C(=O)CC(C)C4(OC)C(C2)N(C)CCC314 (centres undefined)	204 to 205
COC(=O)c1ccc(NC(C)=O)cc1NC(=O)NC(C)C	153 to 155
CN1CCC2(CC1)c1ccccc1Oc1c(O)cccc12	171 to 173
Cn1ccnc1Sc1ccc(Nc2c(C#N)cnc3cc(N4CCC(N5CCCC5)CC4)c(N)cc23)cc1Cl	265 to 267
CCCc1nc2cnccc2s1	44 to 47
O=C(O)c1ccc(C2=NOC(c3cc(Cl)cc(Cl)c3)(C(F)(F)F)C2)cc1F (centres undefined)	172 to 174
Nc1nc2c(nc(Br)n2Cc2cccnc2)c(=O)[nH]1	> 300
C#CC1(O)CCC2C3CCC4=CC(=O)C=CC4(C)C3CCC21C (centres undefined)	218 to 219
Cc1c(NCC2CCCCO2)cc2oc(=O)[nH]c2c1F (centres undefined)	166
C=CCCCCCCCCC(=O)N1CC[C@H]2[C@H]1[C@@H](CCC)C(=O)N2S(C)(=O)=O (relative stereo)	62 to 64.6
C=C1C[C@@H]2[C@H](CC[C@]3(C)C(=O)CC[C@@H]23)[C@@]2(C)CCC(=O)C(OC)=C12	196 to 198
NC(=O)N1CCC2(CC1)CN(c1ccccc1[N+](=O)[O-])c1ccccc12	218 to 219

Compound	melting point [°C]
O=C(NC(Cc1ccccc1)C(=O)O)c1ccccc1 (centres undefined)	183 to 184
COC(=O)C(O)(c1cc(F)cc(F)c1)c1cc(F)cc(F)c1	113 to 114
CCCN(CCC)C1Cc2cccc3c2N(CCC3)C1 (centres undefined)	112 to 116
CSc1sc(C(N)=O)c2c1-c1[nH]ncc1CC2	210 to 211
O=Cc1c2ccccc2c(Br)c2ccccc12	215 to 216
Cc1nnc(-c2ncn3c2[C@@H]2CCCN2C(=O)c2c(Cl)cccc2-3)o1	253 to 254
CCSc1c(C=NO)c(=O)n(C)c(=O)n1C	161 to 163
CSC(Nc1ccc2c(c1)OCO2)=C(C#N)C(=O)C(C)(C)C	139 to 141
CS(=O)(=O)N(CC1CCCCC1)CC(O)(Cn1cncn1)c1ccc(Cl)cc1Cl (centres undefined)	168 to 169
CC(C)c1cc2c(cc1O)C(=O)CCC2	149 to 150
C[C@H](NC(=O)c1c[nH]c2ncc(-c3ccc(C(=O)NC4CCOCC4)s3)nc12)C(C)(C)C	333 to 334
COc1cc2c(cc1C=O)C(C)(C(F)(F)F)OCC2 (centres undefined)	82 to 93
CC1Cc2c(cc(C(C)(C)C)c(O)c2C(C)(C)C)O1 (centres undefined)	86.8
Nc1nc(O)c2ccnc-2[nH]1	> 300
COC(=O)c1nc(Cl)c(F)c(N)c1/C=C/Cl	128 to 130
O=C(O)Cn1c(=O)c(=O)[nH]c2cc(Br)c(Br)cc21	> 300
CCCCCCCCCCCCCCCCCCS(=O)(=O)c1cc(C(=O)O)c([N+](=O)[O-])c(C(=O)O)c1	203 to 205
CCc1c(C)n(C)c(=O)n(-c2cc(OC(C)C)c(Cl)cc2F)c1=O	124 to 125
CC1(C)CCC(C)(C)c2cc(-c3cc(-c4ccccc4O)ccc3C(=O)O)ccc21	264 to 267
O=C(CN1CC(c2ccc(F)cc2)CC1=O)ON1C(=O)CCC1=O (centres undefined)	120 to 123
CN1CCc2c([nH]c3ccc(NS(=O)(=O)c4c(Cl)nc5sccn45)cc23)C1	232 to 233

Now from value to molecule:

melting point [°C]	Compound
198 to 201	CC1=C(/C=C/S(=O)(=O)NC(C)C)[C@H](c2cccc([N+](=O)[O-])c2)C(C(=O)O[C@H](C)c2ccccc2)=C(C)N1
149	CCOC(=O)c1cccc2[nH]c3c(C)ccc(C)c3c12
161 to 163	CN(C)CCN(C)c1ccc(Nc2cc(Br)cn(C)c2=O)nc1
151 to 152	CCOC(=O)c1cc(SCc2ccccc2)c(Sc2ccccc2)c(S(N)(=O)=O)c1
50 to 52	CCOC(C)O[C@H]1C(=O)N(C(=O)Oc2ccccc2)[C@H]1c1ccccc1 (some centres undefined)
150	COc1ccc2c(c1)Sc1c(ccc(OC)c1C=O)N2C
140 to 142	CCOC=C1C(=S)c2cc(C)ccc2OC1c1ccccc1 (centres undefined)
172 to 173	COc1ccccc1C1CC(=O)Oc2ccc(Cl)cc21 (centres undefined)
128	C=C(C)COc1ccc(Br)cc1CN(CC)c1ccc(C(=O)NS(=O)(=O)c2scnc2C)nn1
160 to 161	CCOC(=O)c1sc2ccc(O)cc2c1Cl
167 to 168	Cc1oc(-c2ccco2)nc1COc1ccc(COc2ccccc2CC(=O)O)cc1
178 to 179	COc1cc(-n2cnc3cc(-c4ccc(Cl)cc4)sc3c2=O)ccc1OC[C@H](O)C1CC1
225	O=C1CNc2ncc(I)cc2N1Cc1ccccc1
91	COc1ccccc1OCCN1CCC(Cc2c[nH]c3ccc(F)cc23)CC1
112 to 113	CCCOc1nn(-c2ccc(C(F)(F)F)cn2)cc1CCCOc1ccc(CCC(=O)O)c(OCC)c1
146 to 147	CCOC(=O)NC(=O)C(c1cccc(C)c1)c1ncc(C(F)(F)F)cc1Cl (centres undefined)
107 to 120	CN(C(=O)N1Cc2nc(C(O)c3ccccc3)n(Cc3ccccc3)c2CC1CO)c1ccccc1 (centres undefined)
198	C=C(CN(C)C)C(O)c1ncc2c(c1O)COC2c1ccc(F)cc1 (centres undefined)
180	Cc1ccc2c(c1)C=Cc1nc(C)oc1C2c1cn(Cc2cccc(C(=O)O)c2)c(=O)[nH]c1=S (centres undefined)

melting point [°C]	Compound
205 to 207	CCCc1nc2c(N)nc3cc(OCc4ccc(C)cc4)ccc3c2n1CC(C)C
102 to 103	CC(=O)c1sc(Oc2ccc3c(c2)OCO3)c2c1CCc1cnn(C)c1-2
254 to 256	O=C1c2ccccc2-c2oc(=O)c3ccccc3c21
86 to 87	O=Cc1ccc2c(c1)N(C1CCN(CCc3ccccc3F)CC1)CC2
189 to 190	O=C(NOCCO)c1cc(Br)c(F)c(F)c1Nc1ccc(I)cc1F
73	CN(Cc1cccc(-c2ccc(CC3SC(=O)NC3=O)cc2)c1)C(=O)Cc1ccccc1 (centres undefined)
191 to 193	CN(C1CCCCC1)S(=O)(=O)c1ccc(Cn2cnc3ccccc32)cc1
135 to 137	COC(=O)c1c(OCc2ccccc2)ccc2c1CCCC2=NO
168 to 172	CS(=O)(=O)Nc1ccc(OCCN2CCC(C(=O)c3ccc(NS(C)(=O)=O)cc3)CC2)cc1
173 to 174	CC(C)c1nccn1-c1nc(-c2ccc(Cl)cc2)c(CCC(=O)O)o1
98	CCCCCCOP(=O)(OCCCCCC)c1ccc(NC(=O)c2cccc([N+](=O)[O-])c2)cc1
216	CCN(CC)c1ccc(-c2cc(-c3ccc(C(=O)O)cc3)ccc2OCCO)cc1C(C)(C)C
148 to 150	CC(=O)Nc1ccc(OC(=O)c2cc(OC(C)=O)ccc2OC(C)=O)cc1
158 to 160	CC(=O)N(C(=O)C1=NN(c2ccc(Cl)cc2)C(c2ccc(Cl)cc2)C1)c1ccc(C(F)(F)F)cc1 (centres undefined)
113 to 115	CCOC(=O)C(=O)CC(=O)C(Br)C(Br)c1ccccc1OC (centres undefined)
76 to 78	COc1ccccc1COc1ccc(S(=O)(=O)c2ccc(C)nc2Br)cc1
198 to 199	O=C(NCCn1cc(Cn2ccnc2)c2ccccc21)Nc1ccccc1
210 to 214	CCc1cc(-c2ccc(-c3cc(CCC(=O)NCc4cccnc4)[nH]n3)cc2)ccc1O
231	CC(COc1ccc(/C=C/C(=O)O)cc1)N(C)C (centres undefined)

melting point [°C]	Compound
54 to 56	CCCCCCCCCCc1ccnc(C(=O)NCCCCC(=O)O)c1
95.5 to 97.5	CCCc1c(OCCCCCOc2ccc3c(c2CCC)OC(C(=O)O)CC3O)ccc(C(C)=O)c1O (centres undefined)
128	CC(C)Oc1ccc(CCCOc2cc(CCC(=O)O)n(C(C)C)n2)c(Oc2ncc(C(F)(F)F)cc2Cl)c1
174 to 175	CCCCNc1cc(CNCc2cccc(O)c2)cc(S(N)(=O)=O)c1Oc1ccccc1
187 to 188	O=C1NC(=O)C(c2ccc3ccccc3c2)O1 (centres undefined)
81 to 81.5	OC(CCN1CCN(c2ccccn2)CC1)COc1cccc(C(F)(F)F)c1 (centres undefined)
121 to 122	Cc1ccc2ccccc2c1N(C(=O)CCl)C1COC(=O)C1 (centres undefined)
267 to 268	O=C(O)c1cnc2n(c1=O)CCCC2=NNc1ccccc1
123	COC(=O)c1ccc2c(oc3ccccc32)c1C(=O)OC
145 to 146	CCCCNC(N)=Nc1nc(-c2cccc(CNC(C)=O)n2)cs1
161 to 162	O=C(O)Cc1ccc2nc(-c3ccccc3)ccc2c1
170 to 171	COc1ccc(CC(SC)C(=O)O)cc1C(=O)NCc1ccc(C(F)(F)F)cc1 (centres undefined)
> 300	O=C(Nc1ccccc1)C1CCc2c(cnc3[nH]ncc23)C1 (centres undefined)
155 to 157	Cc1ccc(OS(=O)(=O)c2ccc(N3CCN(C)C3=O)cc2)cc1
135 to 140	Fc1cccc(F)c1-c1ncc(C=Cc2ccc(Cl)cc2)nn1
144	COC(=Cc1ccc(-c2cccc(N(C)C(=O)NCCc3ccccc3)c2)cc1)C(=O)O
84 to 86	CCOCc1cc2ccccc2oc1=Nc1ccc(F)cc1
137 to 139	CCOC(=O)c1oc2c(C(=O)c3ccccc3)ccc(OC)c2c1C
